Consider 5 compounds from ChEMBL document CHEMBL1150977, “A quantitative analysis of kinase inhibitor selectivity” (Nat Biotechnol, 2008).

Assay [1] deals with Mitogen-activated protein kinase 3 (Homo sapiens, UniProt P27361).
The target of assay [2] is RAC-alpha serine/threonine-protein kinase (Homo sapiens, UniProt P31749).
Assay [3] deals with Serine/threonine-protein kinase pim-1 (Homo sapiens, UniProt P11309).
Assay [4] has as its target T1, Serine/threonine-protein kinase 17B (Homo sapiens, UniProt O94768).
T1 sequence (O94768 whole entry): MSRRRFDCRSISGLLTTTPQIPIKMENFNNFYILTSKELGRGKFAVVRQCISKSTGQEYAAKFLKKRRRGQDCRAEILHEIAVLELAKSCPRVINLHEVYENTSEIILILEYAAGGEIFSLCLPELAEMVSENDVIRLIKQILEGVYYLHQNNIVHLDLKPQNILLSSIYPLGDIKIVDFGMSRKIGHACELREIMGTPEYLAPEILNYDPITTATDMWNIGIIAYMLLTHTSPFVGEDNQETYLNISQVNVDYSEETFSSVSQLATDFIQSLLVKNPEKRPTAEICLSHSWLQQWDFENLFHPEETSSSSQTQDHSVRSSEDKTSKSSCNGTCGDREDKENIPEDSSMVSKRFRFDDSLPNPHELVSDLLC

For assay [5], the target named is T2, Ephrin type-A receptor 6 (Homo sapiens, UniProt Q9UF33).
T2 sequence (Q9UF33 whole entry): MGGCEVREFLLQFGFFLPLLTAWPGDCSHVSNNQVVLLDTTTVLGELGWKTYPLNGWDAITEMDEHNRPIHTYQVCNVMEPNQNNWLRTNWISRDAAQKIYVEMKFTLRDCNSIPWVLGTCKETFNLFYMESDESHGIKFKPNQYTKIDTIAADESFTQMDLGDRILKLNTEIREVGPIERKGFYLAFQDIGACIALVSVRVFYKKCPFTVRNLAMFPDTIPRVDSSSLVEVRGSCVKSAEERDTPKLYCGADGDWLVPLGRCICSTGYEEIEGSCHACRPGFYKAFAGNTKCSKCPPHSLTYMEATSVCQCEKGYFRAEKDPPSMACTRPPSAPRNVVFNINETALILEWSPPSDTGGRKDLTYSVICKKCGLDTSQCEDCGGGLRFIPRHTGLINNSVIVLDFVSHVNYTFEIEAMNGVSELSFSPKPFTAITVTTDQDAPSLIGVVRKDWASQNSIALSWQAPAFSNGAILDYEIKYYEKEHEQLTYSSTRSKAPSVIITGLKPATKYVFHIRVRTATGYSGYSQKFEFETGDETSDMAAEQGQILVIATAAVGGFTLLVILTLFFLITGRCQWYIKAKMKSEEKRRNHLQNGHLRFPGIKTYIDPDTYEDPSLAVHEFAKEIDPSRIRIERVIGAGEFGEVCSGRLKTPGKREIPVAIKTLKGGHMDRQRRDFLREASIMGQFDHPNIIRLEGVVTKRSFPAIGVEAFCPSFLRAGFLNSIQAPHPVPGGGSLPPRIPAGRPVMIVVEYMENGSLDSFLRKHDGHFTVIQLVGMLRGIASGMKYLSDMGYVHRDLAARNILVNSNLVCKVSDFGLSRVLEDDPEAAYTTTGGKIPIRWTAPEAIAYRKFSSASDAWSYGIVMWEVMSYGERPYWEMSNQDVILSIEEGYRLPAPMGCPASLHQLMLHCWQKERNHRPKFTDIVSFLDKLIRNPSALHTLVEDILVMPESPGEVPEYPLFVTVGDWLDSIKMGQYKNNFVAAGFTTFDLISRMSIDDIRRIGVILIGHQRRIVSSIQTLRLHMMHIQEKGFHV

The target of assay [6] is Cyclin-dependent kinase 2 (Homo sapiens, UniProt P24941).
Assay [7] addresses T3, Serine/threonine-protein kinase RIO3 (Homo sapiens, UniProt O14730).
T3 sequence (O14730 whole entry): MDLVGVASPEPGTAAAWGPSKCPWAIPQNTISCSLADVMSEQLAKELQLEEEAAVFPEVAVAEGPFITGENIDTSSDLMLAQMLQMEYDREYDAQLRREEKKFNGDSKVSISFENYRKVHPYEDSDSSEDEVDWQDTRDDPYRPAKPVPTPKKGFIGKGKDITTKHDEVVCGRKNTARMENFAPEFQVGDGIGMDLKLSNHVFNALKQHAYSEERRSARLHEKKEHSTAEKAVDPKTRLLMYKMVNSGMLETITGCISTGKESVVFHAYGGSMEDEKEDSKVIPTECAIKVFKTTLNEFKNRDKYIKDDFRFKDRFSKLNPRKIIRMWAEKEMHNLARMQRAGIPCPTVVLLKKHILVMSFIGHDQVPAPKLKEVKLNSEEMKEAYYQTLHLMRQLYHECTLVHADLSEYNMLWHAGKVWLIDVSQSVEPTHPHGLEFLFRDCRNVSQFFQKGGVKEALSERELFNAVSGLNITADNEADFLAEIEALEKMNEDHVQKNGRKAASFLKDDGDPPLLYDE

Assay [8] addresses T4, Non-receptor tyrosine-protein kinase TNK1 (Homo sapiens, UniProt Q13470).
T4 sequence (Q13470 whole entry): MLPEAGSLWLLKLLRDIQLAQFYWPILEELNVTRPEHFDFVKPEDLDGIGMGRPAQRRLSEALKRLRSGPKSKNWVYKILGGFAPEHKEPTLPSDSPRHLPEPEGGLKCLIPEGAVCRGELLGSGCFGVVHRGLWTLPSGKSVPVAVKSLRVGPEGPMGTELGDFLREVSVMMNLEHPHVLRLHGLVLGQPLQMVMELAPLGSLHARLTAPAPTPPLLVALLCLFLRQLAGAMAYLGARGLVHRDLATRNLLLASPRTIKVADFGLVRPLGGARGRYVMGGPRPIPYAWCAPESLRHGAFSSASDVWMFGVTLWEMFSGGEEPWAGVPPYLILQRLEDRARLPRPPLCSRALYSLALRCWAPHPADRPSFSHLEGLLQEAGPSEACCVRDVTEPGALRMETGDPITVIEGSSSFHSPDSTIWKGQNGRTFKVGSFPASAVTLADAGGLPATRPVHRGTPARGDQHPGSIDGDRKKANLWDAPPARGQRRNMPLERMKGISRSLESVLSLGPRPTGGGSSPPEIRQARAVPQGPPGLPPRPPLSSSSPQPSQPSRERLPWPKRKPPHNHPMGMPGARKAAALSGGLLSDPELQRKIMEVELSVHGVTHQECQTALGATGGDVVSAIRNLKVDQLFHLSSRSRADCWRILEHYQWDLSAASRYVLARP

Mitogen-activated protein kinase 3, sequence (P27361 whole entry): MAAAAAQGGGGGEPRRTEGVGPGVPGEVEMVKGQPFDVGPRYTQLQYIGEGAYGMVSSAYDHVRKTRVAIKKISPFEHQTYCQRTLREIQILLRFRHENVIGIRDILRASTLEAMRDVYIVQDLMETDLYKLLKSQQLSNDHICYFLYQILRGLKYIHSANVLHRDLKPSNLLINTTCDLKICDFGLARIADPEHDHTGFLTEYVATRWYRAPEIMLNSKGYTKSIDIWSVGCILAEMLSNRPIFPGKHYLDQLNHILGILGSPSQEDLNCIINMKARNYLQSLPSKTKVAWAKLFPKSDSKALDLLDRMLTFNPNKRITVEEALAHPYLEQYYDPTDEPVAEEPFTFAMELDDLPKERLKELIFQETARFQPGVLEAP
Serine/threonine-protein kinase pim-1, sequence (P11309 whole entry): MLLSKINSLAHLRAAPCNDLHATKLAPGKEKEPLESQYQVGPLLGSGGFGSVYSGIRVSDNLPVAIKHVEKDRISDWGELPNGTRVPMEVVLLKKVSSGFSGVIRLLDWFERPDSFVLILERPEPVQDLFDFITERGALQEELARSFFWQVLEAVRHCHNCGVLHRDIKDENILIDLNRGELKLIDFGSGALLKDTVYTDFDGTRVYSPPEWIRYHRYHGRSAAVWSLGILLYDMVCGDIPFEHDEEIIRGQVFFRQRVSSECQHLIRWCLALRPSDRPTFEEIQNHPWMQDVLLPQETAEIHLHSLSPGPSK
RAC-alpha serine/threonine-protein kinase, sequence (P31749 whole entry): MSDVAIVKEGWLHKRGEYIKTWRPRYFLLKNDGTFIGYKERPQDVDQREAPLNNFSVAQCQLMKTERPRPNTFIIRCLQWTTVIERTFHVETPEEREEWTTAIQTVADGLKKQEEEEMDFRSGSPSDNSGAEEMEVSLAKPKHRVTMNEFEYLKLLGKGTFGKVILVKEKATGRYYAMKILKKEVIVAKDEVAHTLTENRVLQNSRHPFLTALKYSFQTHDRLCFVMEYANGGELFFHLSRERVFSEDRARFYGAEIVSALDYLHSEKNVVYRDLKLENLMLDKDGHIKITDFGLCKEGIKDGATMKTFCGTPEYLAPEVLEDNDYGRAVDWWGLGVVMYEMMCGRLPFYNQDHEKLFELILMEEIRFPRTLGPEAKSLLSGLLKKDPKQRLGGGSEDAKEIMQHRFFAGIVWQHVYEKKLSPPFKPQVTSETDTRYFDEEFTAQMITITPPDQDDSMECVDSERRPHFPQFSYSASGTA

As usually defined, the Kd is the concentration at which binding is half-saturated. Low readings indicate higher affinity, high ones lower affinity. `COCC(=O)NC/C=C/c1ccc2ncnc(Nc3ccc(Oc4ccc(C)nc4)c(C)c3)c2c1` [CP-724714]: the Kd in assay [1], in assay [2], in assay [3], in assay [4], in assay [5] and in assay [6] was greater than 10 µM in each case. Also, the Kd in assay [7] and in assay [8] was greater than 10 µM each time.

For the compound `Nc1nc(Nc2ccc(S(N)(=O)=O)cc2)nn1C(=O)c1c(F)cccc1F` [JNJ-7706621], the Kd in assay [2] is greater than 10 µM; in assay [4] it was greater than 10 µM; in assay [5] it was greater than 10 µM; in assay [7] it was 1.2 µM.

Take `CCOc1cc2ncc(C#N)c(Nc3ccc(F)c(Cl)c3)c2cc1NC(=O)/C=C/CN(C)C` [PELITINIB]: the Kd in assay [1], in assay [2], in assay [3], in assay [6], in assay [7] and in assay [8] was greater than 10 µM throughout.

With `Oc1ccc(-c2nc(-c3ccncc3)c(-c3ccc(F)cc3)[nH]2)cc1` [SB-202190], the Kd was greater than 10 µM in assay [1]; greater than 10 µM in assay [2]; greater than 10 µM in assay [3]; greater than 10 µM in assay [4]; 2.2 µM in assay [5]; greater than 10 µM in assay [6]. Moreover, the Kd in assay [7] and in assay [8] was greater than 10 µM each time.

For the compound `NC(=O)c1ccc(-c2nc(-c3ccc4c(c3)OCO4)c(-c3ccccn3)[nH]2)cc1` [SB-431542], the Kd in assay [1], in assay [2], in assay [3], in assay [4], in assay [5] and in assay [7] was greater than 10 µM in each case. In assay [8], this compound had a Kd greater than 10 µM.
